Measurements reported in patent publication US7919471B2, “Method of modulating cell survival and reagents useful for same” (The University of Queensland, priority 1998, dated 2011).
Where no end group is shown, it is not given here.

Legend:
[1] = test system: membrane bound c35; assay: Protection by soluble c35 / 29mer against death signalling from membrane-bound c35; assay type: cell-based; conditions: for protection against membrane-linked, expressed c35: FIG. 7, microinjection of sptc35, peptide 30 minutes later
Description: FIG. 7 is a graphical representation showing protection of membrane-bound killing-domain by a soluble 35 amino acid peptide and a soluble 29 amino acid peptide. The cells were subjected to microinjection of sptc35 or GFP followed 30 minutes later by either peptide c35 or the 29mer peptide.

[2] = test system: p75^NTR-mediated death; assay: Modulation of p75NTR-induced killing of microinjected DRG neurons by co-expressed proteins, antisense or caspase inhibitors; assay type: cell-based, mouse; conditions: for p75^NTR-mediated (induced) neural death: neurons over-expressing p75^NTR, in LIF, agent present or co-expressed
Excerpt: The inventors hypothesised that the free cytoplasmic expressed 35 amino acid domain might be able to interfere with death signalling from full length p75^NTR proteins by a dominant-negative mechanism, and attempted to inhibit the death by co-expressing the proteins. Given the results presented below regarding the ability of overexpression of Bcl-2 to enhance p75^NTR killing, this paradigm was used to test the ability of the c35 protein to inhibit death signalling.
As the inventors had shown that the death of dorsal root ganglia (DRG) sensory neurons in vitro and in vivo, was, at least in part, mediated by p75^NTR, p75^NTR was over-expressed in these cells by microinjecting rat p75^NTR cDNA expressing plasmid into the nucleus of mouse sensory neurons. These were cultured in the presence of the LIF to prevent neural death not linked to p75^NTR mechanisms. […] The injected neurons were observed over a 48 hour period and the viability was assessed. […] This was expected since the cytoplasmic tail contains a sequence with homology to the Fas/TNFR “death domain” [9].
The Bcl-2 family of proteins is involved in mediating apoptotic signalling pathways, and can homodimerise or heterodimerise with other family members. Bcl-2 and Bcl-xL are well characterised inhibitors of stress-induced apoptosis, JNK activation and neural death due to growth-factor limitation. However, both are poor inhibitors of Fas and TNFR mediated opoptosis. As it had been shown previously that high levels of Bcl-2 or Bcl-xL blocked neural cell death in a variety of models, the inventors examined whether over-expression of these proteins could block the death induced by p75^NTR.
The inventors tested, therefore, whether high endogenous Bcl-2 levels might be necessary for successful p75^NTR-mediated killing in normal neurons by assaying p75^NTR killing in Bcl-2 depleted cells. Endogenous Bcl-2 was down regulated by antisense as previously described.
To investigate whether the p75^NTR-Bcl-2 death-signalling cascade was dependent on caspase activation, inhibitors of caspases were employed.

[3] = test system: dorsal root ganglia (DRG) sensory neurons; assay: Microinjection of plasmid expression constructs into DRG neurons cultured in LIF; survival of injected neurons; assay type: cell-based, mouse; conditions: microinjected DRG neurons cultured in LIF
Description: In order to investigate how p75^NTR signals neural death, the inventors devised a robust in vitro assay for p75^NTR induced death. Plasmid expression constructs were microinjected into individual neurons in the presence of the growth factor LIF, and the survival of the neurons expressing the different plasmids was determined. A series of plasmid constructs which encode incomplete p75^NTR proteins were made (see FIG. 1) and the ability of each protein to signal death when over expressed was assessed.
To further investigate the domain required for death signalling the inventors made constructs expressing p75^NTR proteins deleted for the extracellular domain or the extracellular and transmembrane domains. Proteins without extracellular domains retain the signal peptide which is responsible for correctly transporting the protein into the cell membrane. Proteins without transmembrane domains are expressed free in the cytoplasm of the cell and are epitope tagged with a FLAG motif for detection.
As the inventors had shown that the death of dorsal root ganglia (DRG) sensory neurons in vitro and in vivo, was, at least in part, mediated by p75^NTR, p75^NTR was over-expressed in these cells by microinjecting rat p75^NTR cDNA expressing plasmid into the nucleus of mouse sensory neurons. […] The injected neurons were observed over a 48 hour period and the viability was assessed. […]

[4] = test system: neurons; assay: Neural death after growth factor withdrawal with Bcl-2 over-expression; assay type: cell-based, mouse
Excerpt: Thus, at the same expression levels in the same neural population, Bcl-2 was able to prevent or enhance neural cell death depending on the nature of the death signal.

[5] = test system: Schwann cells; assay: Protection of Schwann cells against NGF-induced death; assay type: cell-based; conditions: expressed from a genetic construct
[6] = test system: cells; assay: Cell death mediated by palmitoylated (membrane-linked) peptides; assay type: cell-based; conditions: FIG. 8
Description: FIG. 8 is a graphical representation showing that peptide 29 which has a palmitoyl group at the membrane (amino) end and which facilitates association with the membrane mediates to cell death. […] F, Fluoro tagged; pen, penetratin.
Cells were treated with 2 μM peptide for 1-2 hours then washed. pen, penetratin, F29, 29 mer; Palm, palmitoylation. • ? pen F29 • ? pen F29 Palm • ? pen gp130 Palm • ? pen
The palmitoylation links the peptide to the plasma membrane. This membrane-linked 29mer leads to cell death whereas its soluble form protects cells against p75^NTR-mediated death signalling.
Cells were washed with peptide (2 μM) for approximately 110 minutes and the cells were then washed. Controls included penetratin-fused 29 mer, palmitoylated penetratin-fused 29 mer palmitoylated penetratin-fused gp130 and penetratin alone.

29mer: truncated form of the 35mer; six amino acids deleted from the C-terminal end (SEQ ID NO:12) (KRWNSCKQNKQGANSRPVNQTPPPEGEKL; listed as Rattus norvegicus)
protection against membrane-linked, expressed c35 [1]: also protected against membrane-bound c35

Bcl-2 W188A protein: Bcl-2 protein with inactivating point mutation W188A in the BH2 domain
p75^NTR-mediated (induced) neural death [2]: protected neurons from any p75^NTR-induced death

Bcl-2: over-expressed wildtype Bcl-2 protein
neural death / survival after expression of the construct alone [3]: had no effect on cell survival | p75^NTR-mediated (induced) neural death [2]: induced a significant increase in neural death | neural death induced by NGF withdrawal [4]: able to protect against neural death induced by NGF withdrawal

G145E: Bcl-2 protein with inactivating point mutation G145E in the BH1 domain
p75^NTR-mediated (induced) neural death [2]: enhanced killing effect seen with Bcl-2 coexpression was abrogated

c35 protein: free cytoplasmic 35 amino acid p75NTR domain expressed from a plasmid, not membrane associated, FLAG tagged (KRWNSCKQNKQGANSRPVNQTPPPEGEKLHSDSGI; also: FLAG tagged, end not given here; listed as Rattus norvegicus)
neural death / survival after expression of the construct alone [3]: ability of the domain to induce death is removed | killing induced by co-expression of p75^NTR and Bcl-2 ([2]; co-expression in DRG neurons (FIG. 5)): able to inhibit this killing | protection against membrane bound c35 ([1]; expressed in soluble form): can also protect cells against membrane bound c35 | protection of Schwann cells against NGF-induced death [5]: protected Schwann cells against NGF-induced death

soluble c35: 35 amino acid domain of p75NTR juxtaposed to the membrane, in soluble form (SEQ ID NO:8) (KRWNSCKQNKQGANSRPVNQTPPPEGEKLHSDSGI; listed as Rattus norvegicus)
protection from death signalling by membrane bound c35 ([1]; FIG. 6): protects cells from death signalling in a dose-dependent manner | protection against membrane-linked, expressed c35 [1]: can also protect against membrane-linked, expressed c35 | cell death / protection [6]: tends to protect the cells

z-VAD [reference compound]
p75^NTR-mediated (induced) neural death [2]: significantly reduced
